Assay results as given in patent publication US9326985B2, “Heteroaryl pyridone and aza-pyridone amide compounds” (Genentech, Inc., priority 2013, dated 2016).

Columns and labels:
[1] = target: T1, full length human wildtype Btk (Homo sapiens, UniProt Q06187); assay: Biochemical Btk Assay (BTK LC3K)
T1 construct: V5 (C); 6xHis (C); made in house; host or cells: Sf9 insect cells (baculovirus, pFastBac)
Method: A generalized procedure for a standard biochemical Btk, Kinase Assay that can be used to test Formula I compounds is as follows. A master mix minus Btk enzyme is prepared containing 1× Cell Signaling kinase buffer (25 mM Tris-HCl, pH 7.5, 5 mM beta-glycerophosphate, 2 mM dithiothreitol, 0.1 mM Na3VO4, 10 mM MgCl2), 0.5 μM Promega PTK Biotinylated peptide substrate 2, and 0.01% BSA. A master mix plus Btk enzyme is prepared containing 1× Cell Signaling kinase buffer, 0.5 μM (micromolar) PTK Biotinylated peptide substrate 2, 0.01% BSA, and 100 ng/well (0.06 mU/well) Btk enzyme. Btk enzyme is prepared as follows: full length human wildtype Btk (accession number NM-000061) with a C-terminal V5 and 6×His tag was subcloned into pFastBac® vector (Invitrogen/Life Technologies) for making baculovirus carrying this epitope-tagged Btk. […] Passage 3 virus is used to infect Sf9 cells to overexpress the recombinant Btk protein. The Btk protein is then purified to homogeneity using Ni-NTA column. […] A solution of 200 μM ATP is prepared in water and adjusted to pH 7.4 with 1N NaOH. A quantity of 1.25 μL (microliter) of compounds in 5% DMSO is transferred to a 96-well ½ area Costar polystyrene plate. Compounds are tested singly and with an 11-point dose-responsive curve (starting concentration is 10 μM; 1:2 dilution). A quantity of 18.75 μL of master mix minus enzyme (as a negative control) and master mix plus enzyme is transferred to appropriate wells in 96-well ½ area costar polystyrene plate. 5 μL of 200 μM ATP is added to that mixture in the 96-well ½ area Costar polystyrene plate for final ATP concentration of 40 μM. The reaction is allowed to incubate for 1 hour at room temperature. The reaction is stopped with Perkin Elmer 1× detection buffer containing 30 mM EDTA, 20 nM SA-APC, and 1 nM PT66 Ab. […] IC50 values are subsequently calculated. Alternatively, the Lanthascreen assay can be used to evaluate Btk activity through quantification of its phosphorylated peptide product. The FRET (Fluorescence Resonance Energy Transfer) that occurs between the fluorescein on the peptide product and the terbium on the detection antibody decreases with the addition of inhibitors of Btk that reduce the phosphorylation of the peptide. In a final reaction volume of 25 uL, Btk (h) (0.1 ng/25 ul reaction) is incubated with 50 mM Hepes pH 7.5, 10 mM MgCl2, 2 mM MnCl2, 2 mM DTT, 0.2 mM NaVO4, 0.01% BSA, and 0.4 uM fluorescein poly-GAT. […] After incubation for 60 minutes at room temperature, the reaction is stopped by the addition of a final concentration of 2 nM Tb-PY20 detection antibody in 60 mM EDTA for 30 minutes at room temperature.

[2] = test system: CD69 by B lymphocytes in human whole blood activated with goat F(ab')2 anti-human IgM; assay: CD69 Whole Blood Assay (CD69 Hu Blood FACS); type: cell-based; settings: Lymphocyte, CD69 positive of CD20 positive cells
In short: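 Heparinized human whole blood from healthy drug-free non-smokers preincubated 30 min at 37 °C with ten-point 3-fold compound dilutions, then stimulated with goat F(ab′)2 anti-human IgM (50 μg/ml final) for 20 h. CD69 on B cells read by flow cytometry as mean fluorescence intensity.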

T1 sequence (Q06187 whole entry): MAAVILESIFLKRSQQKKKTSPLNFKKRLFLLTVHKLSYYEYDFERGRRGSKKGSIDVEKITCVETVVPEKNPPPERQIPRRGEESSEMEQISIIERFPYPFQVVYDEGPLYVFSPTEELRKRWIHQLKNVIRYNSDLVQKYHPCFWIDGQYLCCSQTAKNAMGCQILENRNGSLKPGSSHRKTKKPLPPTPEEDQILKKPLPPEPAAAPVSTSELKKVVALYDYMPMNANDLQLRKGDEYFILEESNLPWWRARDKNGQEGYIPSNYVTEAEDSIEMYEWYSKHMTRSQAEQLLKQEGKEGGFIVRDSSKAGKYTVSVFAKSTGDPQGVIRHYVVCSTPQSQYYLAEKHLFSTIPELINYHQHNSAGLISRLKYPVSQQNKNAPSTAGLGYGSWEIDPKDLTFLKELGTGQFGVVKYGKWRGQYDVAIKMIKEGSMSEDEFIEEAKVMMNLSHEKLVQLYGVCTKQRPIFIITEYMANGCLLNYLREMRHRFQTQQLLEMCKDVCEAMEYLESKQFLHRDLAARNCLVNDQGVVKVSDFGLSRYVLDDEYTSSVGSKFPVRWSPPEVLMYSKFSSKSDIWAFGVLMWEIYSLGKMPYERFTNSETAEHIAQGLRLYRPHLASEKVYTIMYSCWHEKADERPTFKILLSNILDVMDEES

## CCC(=O)Nc1cc(-c2ccnc(-n3ncc4cc(C(C)(C)C)cc(F)c4c3=O)c2CO)cn(C)c1=O [Compound 126, N-[5-[2-(6-tert-butyl-8-fluoro-1-oxo-phthalazin-2-yl)-3-(hydroxymethyl)-4-pyridyl]-1-methyl-2-oxo-3-pyridyl]propanamide]
[1]; Table 1
  Ki: 7.01 nM
[2]; Table 1, anti-IgM stimulation
  IC50: 527 nM

## Cn1cc(-c2ccnc(-n3ncc4cc(C(C)(C)C)cc(F)c4c3=O)c2CO)cc(NC(=O)[C@@H]2CC23CC3)c1=O (single isomer, unassigned) [Compound 161]
[1]; Table 2
  Ki: 3.7 nM
[2]; Table 2, anti-IgM stimulation
  IC50: 338 nM

## Cn1cc(C(=O)Nc2cc(-c3ccnc(N4CCn5c(cc6c5CC(C)(C)C6)C4=O)c3CO)cn(C)c2=O)cn1 [Compound 110, N-[5-[2-(7,7-dimethyl-4-oxo-1,2,6,8-tetrahydrocyclopenta[3,4]pyrrolo[3,5-b]pyrazin-3-yl)-3-(hydroxymethyl)-4-pyridyl]-1-methyl-2-oxo-3-pyridyl]-1-methyl-pyrazole-4-carboxamide]
[1]; Table 1
  Ki: > 167 nM
[2]; Table 1, anti-IgM stimulation
  IC50: > 2600 nM

## Cn1cc(-c2cc(F)cc(N3CCn4c(cc5c4CC(C)(C)C5)C3=O)c2CO)cc(NC(=O)[C@@H]2C[C@@H]2F)c1=O [Compound 172, (1S,2S)—N-[5-[3-(7,7-dimethyl-4-oxo-1,2,6,8-tetrahydrocyclopenta[3,4]pyrrole[3,5-b]pyrazin-3-yl)-5-fluoro-2-(hydroxymethyl)phenyl]-1-methyl-2-oxo-3-pyridyl]-2-fluoro-cyclopropanecarboxamide]
[1]; Table 2
  Ki: 0.8 nM
[2]; Table 2, anti-IgM stimulation
  IC50: 17 nM

## Cn1cc(-c2ccnc(N3CCn4c(cc5c4CC(C)(C)C5)C3=O)c2CO)cc(NC(=O)[C@H]2CC23CCC3)c1=O (single isomer, unassigned) [Compound 147]
[1]; Table 2
  Ki: 4.8 nM
[2]; Table 2, anti-IgM stimulation
  IC50: 910 nM

## Cn1cc(-c2cc(F)cc(N3CCc4c(cc5n4CCCC5)C3=O)c2CO)cc(NC(=O)[C@@H]2C[C@@H]2F)c1=O [Compound 167, (1S,2S)-2-fluoro-N-[5-[5-fluoro-2-(hydroxymethyl)-3-(1-oxo-3,4,6,7,8,9-hexahydropyrido[3,4-b]indolizin-2-yl)phenyl]-1-methyl-2-oxo-3-pyridyl]cyclopropanecarboxamide]
[1]; Table 2
  Ki: 2.4 nM
[2]; Table 2, anti-IgM stimulation
  IC50: 245 nM

## CN1CC[C@]2(C[C@H]2C(=O)Nc2cc(-c3ccnc(-n4ncc5cc(C(C)(C)C)cc(F)c5c4=O)c3CO)cn(C)c2=O)C1 (single isomer, unassigned) [Compound 169]
[1]; Table 2
  Ki: 38.4 nM
[2]; Table 2, anti-IgM stimulation
  IC50: > 4800 nM

## Cn1cc(-c2cccc(N3CCc4c(cc5n4CC(C)(C)C5)C3=O)c2CO)cc(NC(=O)C2CC2)c1=O [Compound 142, N-[5-[3-(7,7-dimethyl-4-oxo-1,2,6,8-tetrahydropyrido[3,4-b]pyrrolizin-3-yl)-2-(hydroxymethyl)phenyl]-1-methyl-2-oxo-3-pyridyl]cyclopropanecarboxamide]
[1]; Table 2
  Ki: 1.8 nM
[2]; Table 2, anti-IgM stimulation
  IC50: 70 nM

## Cn1cc(-c2ccnc(N3CCn4c(cc5c4CC(C)(C)C5)C3=O)c2CO)cc(NC(=O)[C@@H]2CC23CC3)c1=O (single isomer, unassigned) [Compound 140]
[1]; Table 2
  Ki: 5.2 nM
[2]; Table 2, anti-IgM stimulation
  IC50: 1400 nM

## Cn1cc(-c2ccnc(N3CCc4cc(OC(F)F)cc(F)c4C3=O)c2CO)cc(NC(=O)[C@@H]2C[C@@H]2F)c1=O [Compound 151, (1S,2S)—N-[5-[2-[6-(difluoromethoxy)-8-fluoro-1-oxo-3,4-dihydroisoquinolin-2-yl]-3-(hydroxymethyl)-4-pyridyl]-1-methyl-2-oxo-3-pyridyl]-2-fluoro-cyclopropanecarboxamide]
[1]; Table 2
  Ki: 66 nM
[2]; Table 2, anti-IgM stimulation
  IC50: > 5300 nM
